pIC50: −log10 of the molar value.
Legend:
ALK5 = target: T1, ALK5 (Homo sapiens, UniProt P36897); experiment: ALK5 inhibition (IC50); assay type: biochemical
T1 sequence (P36897 34-503): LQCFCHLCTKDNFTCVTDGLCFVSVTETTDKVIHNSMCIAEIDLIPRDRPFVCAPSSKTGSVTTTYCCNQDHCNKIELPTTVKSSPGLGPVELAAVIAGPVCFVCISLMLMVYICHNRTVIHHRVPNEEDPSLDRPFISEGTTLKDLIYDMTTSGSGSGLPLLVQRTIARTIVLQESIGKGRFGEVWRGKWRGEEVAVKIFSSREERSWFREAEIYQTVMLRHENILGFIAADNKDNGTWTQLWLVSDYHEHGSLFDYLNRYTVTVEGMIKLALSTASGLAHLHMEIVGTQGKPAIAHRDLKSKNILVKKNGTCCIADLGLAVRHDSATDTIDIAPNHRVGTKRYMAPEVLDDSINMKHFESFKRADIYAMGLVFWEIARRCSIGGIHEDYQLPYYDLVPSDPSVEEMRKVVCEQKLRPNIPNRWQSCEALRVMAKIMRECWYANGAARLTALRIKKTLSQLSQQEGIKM

[1] = test system: glucocorticoid response element (GRE) activity; experiment: GRE activity / GRE reporter in BEAS-2B cells; assay type: cell-based, human; conditions: for TGFβ1-induced suppression of the GRE activity stimulated by Dex (30 nM): PF670462 1 or 10 μM 30 min before TGFβ1 for 24 hours
Experimental: Data are presented as the means and SEM of 3 independent experiments. *P<0.05, cf corresponding Dex 30 nM response.
(§1) The methods used in Examples 1 to 5 (and 10, 19, 20) are similar to those reported in Salem et al 2012 (Br J Pharmacol. 166:2036-2048) and again in Keenan et al 2014 (Respiratory Research, e15:55) in which methods for cell culture, GRE assays and gene expression measurements are fully described. Additional methods for growth of respiratory syncytial virus (RSV) and rhinovirus (RV) are described in Collins et al 2007 (Respir Physiol Neurobiol. 2007 Jun. 15; 156(3):345-52.) and by Xatzipsalti and papdopoulos, 2007 (Contrib Microbiol. 2007; 14:33-41).

[2] = test system: GRE-dependent gene expression; experiment: Glucocorticoid-induced gene expression in BEAS-2B cells; assay type: cell-based, human
Excerpt: as §1
Data are presented as the means and SEM of 4 independent experiments. *P<0.05, cf corresponding Dex 30 nM response. […] Thus, TNFα contribution to glucocorticoid resistance, may be independent of TGFβ. The resistance is exemplified by the epithelial sodium channel alpha subunit SCNN1a which assembles into a Na channel that is thought to contribute to water reabsorption from the airspaces that are flooded during acute lung injury.
TGFβ suppression ranged in magnitude amongst the genes selected for analysis. […] TGFβ and Dex synergise in increasing the expression of PAI-1 (FIG. 24B).

[3] = test system: primary human airway epithelial cells; experiment: Dex-induced gene expression in ALI-differentiated primary human airway epithelial cells; assay type: cell-based; conditions: 3 and 10 μM
Excerpt: as §1
These studies were undertaken in ALI-differentiated culture of primary human airway epithelial cells.

RSV = RSV infection in Balb/C mice, PF670462 on days 3, 4 and 5; assay type: in vivo
GC responsive genes = experiment: Topical (intranasal) PF670462 in naïve Balb/c mice, lung gene expression; assay type: in vivo; conditions: naïve Balb/C female mice; PF670462 0.6 μg intranasal 4 and 24 hours before post mortem
bleomycin-treated mice = test system: bleomycin-treated mice
Excerpt: Bleomycin is commonly used in mice to model pulmonary fibrosis. This anti-cancer agent is known to induce pulmonary fibrosis in a subset of patients. […] Eventually the intensity of the fibrosis declines but never fully resolves. Early treatment in the model (during the first 3 days) may influence the outcome via anti-inflammatory effects (Limjunyawong et al. (2014) Physiol Rep. 2(2): e00249). Delayed treatment is used to specifically examine impact on the fibrogenic process.

GRE-regulated genes = experiment: PF670462 aerosol exposure of Balb/C mice, lung gene expression; assay type: in vivo; conditions: Balb/C female mice; aerosol 0.03-10 mg/ml, 7 min, 24 and 4 hours before harvest
Excerpt: […] and GILZ are known to exert anti-inflammatory actions in by suppression of the master pro-inflammatory transcription factor, NFκB.

HDM allergen = experiment: House dust mite (HDM) allergen challenge in mice; assay type: in vivo
Experimental: The conduct of the house dust mite allergy model with RSV complication was conducted as described herein and using the approaches described in Fuchs and Braun 2008 (Curr Drug Targets. 2008 June; 9(6):495-502).

[4] = BEAS-2B, Dex 100 nM, PF670462 1-10 μM prior incubation
[5] = FIG. 6A, BEAS-2B, SB431542 1 μM, PF670462 10 μM
[6] = Mock-treated mice, PF670462 ip, RT-qPCR
[7] = female Balb/C mice inoculated with RSV, Dex 1 mg/kg (i.p.)/day from day 1, PF670462 30 mg/kg days 3, 4 and 5
[8] = 3-day bleomycin, female mice, PF670462 30 mg/kg ip
[9] = 14 days bleomycin, PF670462 30 mg/kg/day delayed until day 3
[10] = 21 day bleomycin, female mice, PF670462 daily from day 8 until day 21
[11] = 21 day bleomycin, female mice, PF670462 day 8 to 21

Nc1nccc(-c2c(-c3ccc(F)cc3)ncn2C2CCCCC2)n1 [PF670462]
pIC50 (ALK5): 5.94
maximum effect of the glucocorticoid (budesonide, dexamethasone 1-100 nM) on GRE reporter construct ([1]; BEAS 2B cells, PF670462 0.3-10 μM): concentration dependently increased
TGFβ1-induced suppression of the GRE activity stimulated by Dex (30 nM) ([1]; BEAS-2B cells): concentration-dependently attenuated
TGFβ1-induced suppression of the GRE activity stimulated by Dex (30 nM) ([1]; BEAS-2B cells, listed as PF674062): prevents
impairment of Dexamethasone 30 nM GRE responses by Rhinovirus (RV16) infection ([1]; BEAS-2B cells, RV16 0.1 or 1.0 MOI, SB431542 1 μM): prevented
Suppression of glucocorticoid-induced GRE responses to Dex (30 nM) induced by the combination TNFα, IL-13 and IL-4 ([1]; BEAS-2B cells, cytokines each at 1 or 10 ng/ml, PF670462 1 or 10 μM): attenuated
suppression of Dex (30 nM) gene expression response (SCNN1a) induced by IL-13/IL-4 ([2]; BEAS-2B cells, IL-13/IL-4 at 10 ng/ml, PF670462 1 or 10 μM, SB431542 1 μM): partially attenuated
RSV-induced impairment of Dexamethasone ZBTB16 gene expression responses ([2]; BEAS-2B cells, RSV 0.1 or 1.0 MOI, pretreatment): prevented
impairment of Dexamethasone 30 nM GILZ gene expression responses by RV16 infection ([2]; BEAS-2B cells, RV16 1.0 MOI, pretreatment): greatly diminished
TGFβ1 induced suppression of gene expression responses to Dex (30 nM), exemplified by SCNN1a expression ([2]; BEAS-2B cells, TGFβ1 24 hours, PF670462 1 or 10 μM): concentration dependently attenuated
suppression of Dex (30 nM) gene expression response (SCNN1a) induced by the combination TNFα, IL-13 and IL-4 ([2]; BEAS-2B cells, each at 0.1 ng/ml, PF670462 1 or 10 μM, SB431542 1 μM): partially attenuated
TGFβ suppression of glucocorticoid-induced CDKN1C (p57kip2) expression ([2]; BEAS-2B, Dex 100 nM, PF670462 1-10 μM): unaffected
TGFβ suppression of Dex-induced expression of FKBP5 [2, 4]: prevented
TGFβ suppression of Dex-induced expression of GILZ [2, 4]: prevented
TGFβ suppression of Dex-induced expression of SCNNIA (ENaCα) [2, 4]: prevented
TGFβ suppression of Dex-induced expression of ZBTB16 (PLZF) [2, 4]: prevented
increase in expression of PAI-1 by TGFβ and Dex ([2]; BEAS-2B, FIG. 24B, PF670462 1-10 μM): concentration-dependently reduced
levels of GILZ in RV infected cells [2, 5]: increased
levels of GILZ in uninfected cells [2, 5]: but not in uninfected cells
RV infection-induced decrease of Dex-induced GILZ expression ([2]; FIG. 6B, BEAS-2B, SB431542 3 μM, PF670462 3 μM): prevented
TGFβ suppression of (Dex 30 nM)-induced expression of SCNNIA [3]: prevented
TGFβ suppression of (Dex 30 nM)-induced expression of ZBTB16 [3]: prevented
expression of CXCL5 (RSV; FIG. 8B, during RSV infection): no effect alone
expression of KC (RSV; FIG. 8B, during RSV infection): no effect alone
expression of TNFα (RSV; FIG. 8B, during RSV infection): no effect alone
IFN expression (IFNα, IFNβ and IFNγ) (RSV; FIG. 8C, RSV treated mice, bronchoalveolar lavage cells and lung tissue, PF670462 given with Dex): prevented
expression of GILZ in lung tissue (RSV; [6]): directly stimulates
expression of MKP1 in lung tissue (RSV; [6]): neither Dex nor PF670462 alone increased expression
expression of ZBTB16 in lung tissue (RSV; [6]): directly stimulates
bronchoalveolar lavage fluid (BALF) cellular content (RSV; [7]): no effect
bronchoalveolar lavage fluid (BALF) protein content (RSV; [7]): no effect
effect on the GC responsive genes in lung tissue (GC responsive genes): direct stimulatory effect
Bleomycin induction of CTGF in lung tissue (bleomycin-treated mice; [8]): significantly reduced
Bleomycin induction of Col1a in lung tissue (bleomycin-treated mice; [8]): significantly reduced
Bleomycin induction of PAI-1 in lung tissue (bleomycin-treated mice; [8]): significantly reduced
Bleomycin induction of TIMP1 in lung tissue (bleomycin-treated mice; [8]): significantly reduced
BAL protein levels (bleomycin-treated mice; 3-day bleomycin, female mice, PF670462 30 mg/kg ip once daily): significantly reduced
BAL cells (increase by bleomycin) (bleomycin-treated mice; 3-day bleomycin, male mice): but not in PF670462- or Dex-treated mice
Col1A expression increased by bleomycin, lung tissue (bleomycin-treated mice; 3-day bleomycin, male mice): reduced
Col3 expression increased by bleomycin, lung tissue (bleomycin-treated mice; 3-day bleomycin, male mice): reduced
IL-6 increases in response to bleomycin, lung tissue (bleomycin-treated mice; 3-day bleomycin, male mice): reduced
TIMP1 expression increased by bleomycin, lung tissue (bleomycin-treated mice; 3-day bleomycin, male mice): reduced
fibrogenesis / efficacy in the bleomycin model (bleomycin-treated mice; 4 independent studies, 3 to 21 days, male and female mice, PF670462 30 mg/kg/day, ip): able to reduce fibrogenesis
accumulation of cells on the BAL fluid (bleomycin-treated mice; [9]): significantly reduced
wet weight of the lung (bleomycin-treated mice; [9]): significantly reduced
accumulation of cells in the BAL (bleomycin-treated mice; [10]): significantly reduced
accumulation of protein in the BAL (bleomycin-treated mice; [10]): significantly reduced
increase in lung wet weight (bleomycin-treated mice; [10]): significantly reduced
expression of CTGF in the lung tissue (bleomycin-treated mice; [11]): significantly reduced
expression of interleukin-6 (IL-6) in the lung tissue (bleomycin-treated mice; [11]): significantly reduced
expression of plasminogen activation inhibitor-1 (PAI-1) in the lung tissue (bleomycin-treated mice; [11]): significantly reduced
expression of glucocorticoid regulated gene GILZ in lung (bleomycin-treated mice; 21 day experiment, equally in saline and bleomycin-treated mice): induced
lung expression of GILZ (GRE-regulated genes): dose-related increase
lung expression of ZBTB116 (GRE-regulated genes): dose-related increase
increase in the BAL protein level (HDM allergen; HDM allergen 25 μg/35 μL daily intranasal, aerosol PF670462 3 mg/ml, Budesonide 0.5 mg/ml): regulated
Lymphocyte numbers in BAL (HDM allergen; HDM allergen challenged mice, aerosol treatments): reduced

Source: US11975005B2, “Treatment of respiratory diseases” (TIANLI BIOTECH PTY LTD, priority 2015, dated 2024)
